Experimental data reported in US20020137929A1, “1 - (3-heterocyclylphenyl) isothiourea, -isourea, -guanidine and -amidine herbicidal agents” (Intellectual Property Department, BASF Aktiengesellschaft, priority 1998, published 2002).

Tests used:
[1] = tested on: IPOHE (Morningglory, Ivyleaf); experiment: Postemergence herbicidal evaluation; type: in vivo, Ipomoea hederacea
Procedure, shortened: (§1)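 Seedlings grown about two weeks were sprayed at 40 psi with compound dispersed in 50/50 acetone/water plus 0.5% TWEEN 20, at about 0.0156 to 0.500 kg/ha. Plants were kept in the greenhouse and scored 4–5 weeks later on a 0–9 visual scale against untreated controls.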

AMBEL (Ragweed, Common) [2] = experiment: Preemergence herbicidal evaluation; type: in vivo, Ambrosia artemisifolia; conditions: rated 4-5 weeks after treatment
Procedure, shortened: (§2)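 Test compound, dissolved in aqueous acetone, was sprayed over planted soil cups at an equivalent of about 0.0156 to 0.500 kg/ha; seeds had been mixed with potting soil. Greenhouse growth followed, with visual 0-9 scoring of injury at four to five weeks.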

[3] = tested on: CHEAL (Lambsquarters, Common); experiment: Postemergence herbicidal evaluation; type: in vivo, Chenopodium album
Procedure, shortened: as §1

CASOB (Sicklepod) [4] = experiment: Preemergence herbicidal evaluation; type: in vivo, Cassia obtusifolia; conditions: rated 4-5 weeks after treatment
Procedure, shortened: as §2

[5] = tested on: GLXMAW (Soybean, Williams); experiment: Preemergence herbicidal evaluation; type: in vivo, Glycine max, (L.) Merr. cv Williams; conditions: rated 4-5 weeks after treatment
Procedure, shortened: as §2

[6] = tested on: TRZAWR (Wheat, Winter, cv Riband); experiment: Postemergence herbicidal evaluation; type: in vivo, Triticum aestivum
Procedure, shortened: as §1

[7] = tested on: CHEAL (Lambsquarters, Common); experiment: Preemergence herbicidal evaluation; type: in vivo, Chenopodium album; conditions: rated 4-5 weeks after treatment
Procedure, shortened: as §2

MOOVA (Monochoria) = experiment: Preemergence weed control under flooded paddy conditions; type: in vivo, Monochoria vaginalis; conditions: rated 3-4 weeks after treatment
Procedure, shortened: (§3)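 Flooded-pot preemergence screen with silt loam and seeds in the upper 0.5 cm. Dose about 0.0313 to 0.500 kg/ha, delivered into flood water; visual 0-9 score after 3 to 4 weeks.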

ECHCG (Barnyardgrass) = experiment: Postemergence herbicidal evaluation; type: in vivo, Echinochloa crus-galli
Procedure, shortened: as §1

CASOB (Sicklepod) [8] = experiment: Postemergence herbicidal evaluation; type: in vivo, Cassia obtusifolia
Procedure, shortened: as §1

ORYSAT (Rice, Tebonnet) = experiment: Preemergence herbicidal evaluation; type: in vivo, Oryza sativa, (L.) Tebonnet; conditions: rated 4-5 weeks after treatment
Procedure, shortened: as §2

[9] = tested on: SAGPY (Arrowhead (Pygmaea)); experiment: Preemergence weed control under flooded paddy conditions; type: in vivo, Sagittaria pygmaea; conditions: rated 3-4 weeks after treatment
Procedure, shortened: as §3

AMBEL (Ragweed, Common) [10] = experiment: Postemergence herbicidal evaluation; type: in vivo, Ambrosia artemisifolia
Procedure, shortened: as §1

ABUTH (Velvetleaf) = experiment: Preemergence herbicidal evaluation; type: in vivo, Abutilon theophrasti; conditions: rated 4-5 weeks after treatment
Procedure, shortened: as §2

[11] = tested on: IPOHE (Morningglory, Ivyleaf); experiment: Preemergence herbicidal evaluation; type: in vivo, Ipomoea hederacea; conditions: rated 4-5 weeks after treatment
Procedure, shortened: as §2

[12] = tested on: GLXMAW (Soybean, Williams); experiment: Postemergence herbicidal evaluation; type: in vivo, Glycine max, (L.) Merr. cv Williams
Procedure, shortened: as §1

SMILES: CCOC(=O)CN1C(=O)C(CCO)S/C1=N/c1cc(-n2c(=O)cc(C(F)(F)F)n(C)c2=O)c(F)cc1Cl (stereo not drawn) [Compound 49, Ethyl 2-{{2-chloro-5-[3,6-dihydro-3-methyl-2,6-dioxo-4-(trifluoromethyl)-1(2H)-pyrimidinyl]-4-fluorophenyl}imino}-5-(hydroxyethyl)-4-oxo-3-thiazolidineacetate]
- Postemergence herbicidal rating IPOHE ([1]; Rate 0.0313 kg/ha): 9.0
- Postemergence herbicidal rating IPOHE ([1]; Rate 0.0625 kg/ha): 9.0
- Postemergence herbicidal rating IPOHE ([1]; rate 0.0156 kg/ha): 9.0
- Preemergence herbicidal rating AMBEL (AMBEL (Ragweed, Common) [2]; rate 0.0156 kg/ha): 0.0
- Preemergence herbicidal rating AMBEL (AMBEL (Ragweed, Common) [2]; rate 0.0313 kg/ha): 0.0
- Preemergence herbicidal rating AMBEL (AMBEL (Ragweed, Common) [2]; rate 0.0625 kg/ha): 9.0
- Preemergence herbicidal rating AMBEL (AMBEL (Ragweed, Common) [2]; rate 0.1250 kg/ha): 9.0
- Preemergence herbicidal rating AMBEL (AMBEL (Ragweed, Common) [2]; rate 0.2500 kg/ha): 9.0
- Postemergence herbicidal rating CHEAL ([3]; Rate 0.0313 kg/ha): 9.0
- Postemergence herbicidal rating CHEAL ([3]; Rate 0.0625 kg/ha): 9.0
- Postemergence herbicidal rating CHEAL ([3]; rate 0.0156 kg/ha): 9.0
- Preemergence herbicidal rating CASOB (CASOB (Sicklepod) [4]; rate 0.0156 kg/ha): 0.0
- Preemergence herbicidal rating CASOB (CASOB (Sicklepod) [4]; rate 0.0313 kg/ha): 3.0
- Preemergence herbicidal rating CASOB (CASOB (Sicklepod) [4]; rate 0.1250 kg/ha): 3.0
- Preemergence herbicidal rating CASOB (CASOB (Sicklepod) [4]; rate 0.2500 kg/ha): 9.0
- Preemergence herbicidal rating GLXMAW ([5]; rate 0.0156 kg/ha): 0.0
- Preemergence herbicidal rating GLXMAW ([5]; rate 0.0313 kg/ha): 0.0
- Preemergence herbicidal rating GLXMAW ([5]; rate 0.0625 kg/ha): 2.0
- Preemergence herbicidal rating GLXMAW ([5]; rate 0.1250 kg/ha): 2.0
- Preemergence herbicidal rating GLXMAW ([5]; rate 0.2500 kg/ha): 2.0
- Postemergence herbicidal rating TRZAWR ([6]; Rate 0.0313 kg/ha): 4.5
- Postemergence herbicidal rating TRZAWR ([6]; Rate 0.0625 kg/ha): 4.5
- Postemergence herbicidal rating TRZAWR ([6]; rate 0.0156 kg/ha): 4.0
- Preemergence herbicidal rating CHEAL ([7]; rate 0.0156 kg/ha): 9.0
- Preemergence herbicidal rating CHEAL ([7]; rate 0.0313 kg/ha): 9.0
- Preemergence herbicidal rating CHEAL ([7]; rate 0.0625 kg/ha): 9.0
- Preemergence herbicidal rating CHEAL ([7]; rate 0.1250 kg/ha): 9.0
- Preemergence herbicidal rating CHEAL ([7]; rate 0.2500 kg/ha): 9.0
- Herbicidal rating MOOVA (MOOVA (Monochoria); 0.0313 kg/ha): 9.0
- Herbicidal rating MOOVA (MOOVA (Monochoria); 0.0625 kg/ha): 9.0
- Herbicidal rating MOOVA (MOOVA (Monochoria); 0.1250 kg/ha): 9.0
- Herbicidal rating MOOVA (MOOVA (Monochoria); 0.2500 kg/ha): 9.0
- Postemergence herbicidal rating ECHCG (ECHCG (Barnyardgrass); Rate 0.0313 kg/ha): 0.0
- Postemergence herbicidal rating ECHCG (ECHCG (Barnyardgrass); Rate 0.0625 kg/ha): 0.0
- Postemergence herbicidal rating ECHCG (ECHCG (Barnyardgrass); rate 0.0156 kg/ha): 0.0
- Postemergence herbicidal rating CASOB (CASOB (Sicklepod) [8]; Rate 0.0313 kg/ha): 3.0
- Postemergence herbicidal rating CASOB (CASOB (Sicklepod) [8]; Rate 0.0625 kg/ha): 3.0
- Postemergence herbicidal rating CASOB (CASOB (Sicklepod) [8]; rate 0.0156 kg/ha): 2.0
- Preemergence herbicidal rating ORYSAT (ORYSAT (Rice, Tebonnet); rate 0.0156 kg/ha): 0.0
- Preemergence herbicidal rating ORYSAT (ORYSAT (Rice, Tebonnet); rate 0.0313 kg/ha): 0.0
- Preemergence herbicidal rating ORYSAT (ORYSAT (Rice, Tebonnet); rate 0.0625 kg/ha): 0.0
- Preemergence herbicidal rating ORYSAT (ORYSAT (Rice, Tebonnet); rate 0.1250 kg/ha): 5.0
- Preemergence herbicidal rating ORYSAT (ORYSAT (Rice, Tebonnet); rate 0.2500 kg/ha): 5.0
- Herbicidal rating SAGPY ([9]; 0.0313 kg/ha): 2.0
- Herbicidal rating SAGPY ([9]; 0.0625 kg/ha): 4.0
- Herbicidal rating SAGPY ([9]; 0.1250 kg/ha): 6.0
- Herbicidal rating SAGPY ([9]; 0.2500 kg/ha): 7.0
- Postemergence herbicidal rating AMBEL (AMBEL (Ragweed, Common) [10]; Rate 0.0313 kg/ha): 9.0
- Postemergence herbicidal rating AMBEL (AMBEL (Ragweed, Common) [10]; Rate 0.0625 kg/ha): 9.0
- Postemergence herbicidal rating AMBEL (AMBEL (Ragweed, Common) [10]; rate 0.0156 kg/ha): 9.0
- Preemergence herbicidal rating ABUTH (ABUTH (Velvetleaf); rate 0.0156 kg/ha): 9.0
- Preemergence herbicidal rating ABUTH (ABUTH (Velvetleaf); rate 0.0313 kg/ha): 9.0
- Preemergence herbicidal rating ABUTH (ABUTH (Velvetleaf); rate 0.0625 kg/ha): 9.0
- Preemergence herbicidal rating ABUTH (ABUTH (Velvetleaf); rate 0.1250 kg/ha): 9.0
- Preemergence herbicidal rating ABUTH (ABUTH (Velvetleaf); rate 0.2500 kg/ha): 9.0
- Preemergence herbicidal rating IPOHE ([11]; rate 0.0156 kg/ha): 0.0
- Preemergence herbicidal rating IPOHE ([11]; rate 0.0313 kg/ha): 0.0
- Preemergence herbicidal rating IPOHE ([11]; rate 0.0625 kg/ha): 2.0
- Preemergence herbicidal rating IPOHE ([11]; rate 0.1250 kg/ha): 9.0
- Preemergence herbicidal rating IPOHE ([11]; rate 0.2500 kg/ha): 9.0
- Postemergence herbicidal rating GLXMAW ([12]; Rate 0.0313 kg/ha): 7.5
- Postemergence herbicidal rating GLXMAW ([12]; Rate 0.0625 kg/ha): 8.0
- Postemergence herbicidal rating GLXMAW ([12]; rate 0.0156 kg/ha): 7.5
